Experimental data: US20260287577A1, “APPLICATIONS OF HEPATOCYTE CO-CULTURE SYSTEM” (LifeNet Health, priority 2023, published 2026)

How the values were obtained:
Format in all cases: cell-based, human
[1] = test system: co-cultured cells at a 1:2 Kupffer cell to hepatocyte ratio; test: Cell morphology imaging, Example 10; conditions: 24 hours of exposure
Experimental: (§1) A 24-well plate, all-human cell-based triculture system (hTCS) that includes cryopreserved primary human feeder cells (FCs) and primary human hepatocytes (PHHs) and KC were used. The ratios of hepocytes: KC of 1:4 and 1:2 were used. The cells were exposed to TGF-β (10 ng/ml), with NO DEX in the media. During exposure, the above genes were followed. The workflow was the same as described in Example 9.

[2] = test system: SMAD-7, LOX, MMP1, LGALS3, UCHL1, HSP90B1, MMP14, PPAR-λ(gamma); test: Gene expression time course after TGF-β exposure, Example 10; conditions: 10 ng/ml, no DEX
Experimental: as §1
The cells were exposed to 10 ng/ml TGF-β.
(§2) Exposure times were measured at 2, 6, 24, and 96 hours. The gene expressions SMAD-7, LOX, MMP1, LGALS3, UCHL1, HSP90B1, MMP14, PPAR-λ(gamma)) and two housekeeping genes; β-Actin (duplexed) and GAPDH were measured. Cell Health was evaluated by measuring lactate dehydrogenase (LDH), and urea production at all time points.

[3] = test system: MMP1 (matrix Metalloproteinase 1); test: cells
Experimental: (§3) Methods: The hepatic tri-culture system, including adult primary human hepatocytes (PHHs), endothelial cells and stromal cells, was cultured with and without primary KCs, at a ratio of 1 KC:4 PHH or 1 KC:2 PHH, in a glucocorticoid-containing or -free media. […] MTX or TGF-β1 or […] (LPS) cause hepatic injury. The injury leads to lipid accumulation, lipotoxicity and cytokines are produced. These activate the KCs and the liver sinusoidal endothelial cells (LSEC). Then stromal activation and gene expressions occur, leading to liver fibrosis.
(§4) Following exposure to methotrexate (MTX; 0.1 and 1 μM; Sigma-Aldrich, St. Louis, MO) or TGF-β1 (0.1 and 10 ng/ml; Miltenyi Biotec, Gaithersburg, MD) or vehicle (DMSO; 0.1% v/v), the expression of various genes known to have a role in fibrogenic responses (e.g., LGALS3, LOX, MMP1) was determined. MTX and TGF-β1 are known fibrogenic compounds Cell health was assessed by urea production and LDH release in the medium.
(§5) The experiments were done in a 96-well format according to the details shown below. […] The hepatocytes were from an individual adult lot. The Kupffer cells (KCs) were from an individual adult lot. The seeding density of the Kupffer cells to the hepatocytes was selected to mimic healthy or inflammatory physiological levels (1:4 or 1:2 ratio). The seeding of the KCs occurred on Day 1 of the culture (meaning 24 hours post-hepatocyte plating).
(§6) All hepatocyte plating was performed using TCPM with Dex (1 μM), as above. Four hours after hepatocyte plating, TCCM was added with and without Dex (half of the cultures with Dex, half without.) The media used were those as described above. The medium exchange process was to do 50% media changes following KC plating up until the compound addition.
(§7) Thawing and plating of the hepatocytes was done according to methods as known in the art. The next day (24 hours) after plating the cells, the KCs were added in TCCM with or without Dex (0.1 μM) at a 1:4 or 1:2 ratio to hepatocytes. The next day and subsequent days, 50% volume of medium was changed each day. Starting at day 5 of culture, the compounds tested were added in the 50% medium volume and allowed to go, unchanged, through Day 8 of culture (72 hr treatment); or to 120 hr treatment times. The treatment compounds were methotrexate (0.1 and 1.0 μM) and TGF-β1 (0.1 and 10 ng/ml).
(§8) The cell harvest and analytical endpoints were done as follows. Phase contrast images were captured each day. The media samples were collected for lactate dehydrogenase (LDH) assay at the end of each treatment period (i.e., 72 or 120 hours of treatment with each compound). The results were used to assess cell health. Cell lysates were harvested for gene expression analysis. 2 wells were combined per sample. The treatment samples were analyzed in triplicate. The following genes that have a role in fibrogenic response were observed. LGALS3 (Galectin3); LOX (lysyl oxidase), MMP1 (matrix Metalloproteinase 1); Housekeeping gene (β-actin). The images in FIGS. 44 and 45 are at 200×.

[4] = test system: LGALS3 (Galectin3); test: cells
Experimental: as §3, §4, §5, §6, §7, §8

[5] = test system: LOX (lysyl oxidase); test: cells
Experimental: as §3, §4, §5, §6, §7, §8

[6] = test system: hTCS with KC; test: LDH cytotoxicity, Example 10; conditions: 10 ng/ml, presence of Kupffer cells, after 96 hours of exposure
Experimental: as §1, §2

[7] = test system: hTCS with KC; test: Urea production, Example 10; conditions: 10 ng/ml, between 6 and 96 h
Experimental: as §1, §2

[8] = test system: genes known to have a role in fibrogenic responses (e.g., LGALS3, LOX, MMP1); test: Fibrogenic response gene expression overall, Example 9
Experimental: as §3, §4, §5, §6
Thawing and plating of the hepatocytes was done according to methods as known in the art. The next day (24 hours) after plating the cells, the KCs were added in TCCM with or without Dex (0.1 μM) at a 1:4 or 1:2 ratio to hepatocytes. […]
The cell harvest and analytical endpoints were done as follows. […] The treatment samples were analyzed in triplicate. […]

[9] = test system: hepatic tri-cultures; test: Cell health (morphology, urea production, LDH release), Example 9; conditions: TGF-β1 10 ng/ml, exposure up to 120 hr
Experimental: as §4, §8

[10] = 72 hours, with Dex, No KC, TGF-β1 0.1 ng/mL
[11] = 72 hours, with Dex, with KCs, TGF-β1 0.1 ng/mL
[12] = 72 hours, with Dex, with KCs, TGF-β1 10 ng/mL
[13] = 72 hours, without Dex, No KC, TGF-β1 0.1 ng/mL
[14] = 72 hours, without Dex, No KC, TGF-β1 10 ng/mL
[15] = 72 hours, without Dex, with KCs, TGF-β1 0.1 ng/mL
[16] = 72 hours, without Dex, with KCs, TGF-β1 10 ng/mL
[17] = 120 hours, with Dex, No KC, TGF-β1 0.1 ng/mL
[18] = 120 hours, with Dex, No KC, TGF-β1 10 ng/mL
[19] = 120 hours, with Dex, with KCs, TGF-β1 0.1 ng/mL
[20] = 120 hours, with Dex, with KCs, TGF-β1 10 ng/mL
[21] = 120 hours, without Dex, No KC, TGF-β1 0.1 ng/mL
[22] = 120 hours, without Dex, No KC, TGF-β1 10 ng/mL
[23] = 120 hours, without Dex, with KCs, TGF-β1 0.1 ng/mL
[24] = 120 hours, without Dex, with KCs, TGF-β1 10 ng/mL

Substance: TGF-β1: transforming growth factor-β1, pro-fibrogenic cytokine used as fibrogenic reference compound
- cell appearance [1]: the cells appear healthy
- gene expression ([2]; 24 hours of exposure, 1:2 and 1:4 ratios): multiple positive signals for gene expression
- gene expression compared to the controls ([2]; 96 hours exposure, almost all genes, ratios 1:4 and 1:2 Kupffer cells to hepatocytes): reduced gene expression
- MMP1 fold induction Mean [3, 10]: 0.9 fold
- MMP1 fold induction Mean [3, 11]: 1.0 fold
- MMP1 fold induction Mean [3, 12]: 1.3 fold
- MMP1 fold induction Mean [3, 13]: 1.0 fold
- MMP1 fold induction Mean [3, 14]: 1.2 fold
- MMP1 fold induction Mean [3, 15]: 1.1 fold
- MMP1 fold induction Mean [3, 16]: 1.2 fold
- MMP1 fold induction Mean [3, 17]: 1.2 fold
- MMP1 fold induction Mean [3, 18]: 1.1 fold
- MMP1 fold induction Mean [3, 19]: 1.2 fold
- MMP1 fold induction Mean [3, 20]: 0.1 fold
- MMP1 fold induction Mean [3, 21]: 1.0 fold
- MMP1 fold induction Mean [3, 22]: 1.1 fold
- MMP1 fold induction Mean [3, 23]: 1.1 fold
- MMP1 fold induction Mean [3, 24]: 1.7 fold
- MMP1 gene expression ([3]; TGF-β1 10 ng/ml, presence of KCs): increased MMP1 in a time-dependent manner
- LGALS3 fold induction Mean [4, 10]: 1.1 fold
- LGALS3 fold induction Mean ([4]; 72 hours, with Dex, No KC, TGF-β1 10 ng/mL): 0.8 fold
- LGALS3 fold induction Mean [4, 11]: 0.9 fold
- LGALS3 fold induction Mean [4, 12]: 0.8 fold
- LGALS3 fold induction Mean [4, 13]: 1.2 fold
- LGALS3 fold induction Mean [4, 14]: 0.5 fold
- LGALS3 fold induction Mean [4, 15]: 1.1 fold
- LGALS3 fold induction Mean [4, 16]: 0.8 fold
- LGALS3 fold induction Mean [4, 17]: 1.0 fold
- LGALS3 fold induction Mean [4, 18]: 0.8 fold
- LGALS3 fold induction Mean [4, 19]: 0.8 fold
- LGALS3 fold induction Mean [4, 20]: 0.8 fold
- LGALS3 fold induction Mean [4, 21]: 1.0 fold
- LGALS3 fold induction Mean [4, 22]: 0.4 fold
- LGALS3 fold induction Mean [4, 23]: 1.1 fold
- LGALS3 fold induction Mean [4, 24]: 0.6 fold
- LOX fold induction Mean [5, 10]: 1.1 fold
- LOX fold induction Mean [5, 11]: 1.0 fold
- LOX fold induction Mean [5, 12]: 1.2 fold
- LOX fold induction Mean [5, 13]: 1.2 fold
- LOX fold induction Mean [5, 14]: 1.3 fold
- LOX fold induction Mean [5, 15]: 1.1 fold
- LOX fold induction Mean [5, 16]: 1.6 fold
- LOX fold induction Mean [5, 17]: 0.9 fold
- LOX fold induction Mean [5, 18]: 1.7 fold
- LOX fold induction Mean [5, 19]: 1.0 fold
- LOX fold induction Mean [5, 20]: 1.6 fold
- LOX fold induction Mean [5, 21]: 1.2 fold
- LOX fold induction Mean [5, 22]: 2.2 fold
- LOX fold induction Mean [5, 23]: 1.2 fold
- LOX fold induction Mean [5, 24]: 2.0 fold
- cytotoxicity based on LDH production [6]: cytotoxicity of the co-cultured cells was low
- urea production rate compared to vehicle alone [7]: a decrease in the production rate
- culture conditions in which effects on fibrogenic genes were observed ([8]; DEX / no DEX, with / without KCs): observed in both DEX and no DEX treated groups, with or without KCs
- gene expression ([8]; TGF-β1 0.1 ng/ml): did not affect gene expression
- cell stress (hepatocellular morphology, urea production, LDH release) [9]: exhibited signs of cell stress
